Results: EP0942896B1, “SUBSTITUTED PHENOLS AND THIOPHENOLS USEFUL AS ANTIOXIDANT AGENTS” (Aventis Pharmaceuticals Inc., priority 1996, dated 1998)
Where two headings read alike, the source gives them in different places.

How the values were obtained:
Male Sprague-Dawley Rats = test: Serum clinical chemistries in rats fed compound as dietary admixture; format: in vivo; details: % of control, diet 0.3%, 4 days, N = 5; for ALT: alanine aminotransferase in rat serum; for ALP: alkaline phosphatase in rat serum; for AST: aspartate aminotransferase in rat serum; for GLUC: glucose in rat serum; for response vs control in vivo at 0.3 % in diet: feed or water, 96 h
From the text: A typical experiment consists of 4-6 groups of rats (N = 5 per group) with I group being a control which receives no MDL compound and the other groups being treated with 0.3% MDL compound. Some of the compounds are either repeated at 0.3% or evaluated again at the lower dose of 0.1%. House Male Sprague-Dawley rats, 50-100 g, (Harlan Laboratories, Indianapolis, IN) in groups of 5, feeding ad libitum water and Purina Rodent chow (#5002) with or without MDL compound as a dietary admixture for 4 days. Make dietary admixtures (0.3%) by mixing 1.2 grams of an MDL compound with 400 grams of Purina rodent chow (#5002). Mix the MDL compound with approximately 50 grams of food using a mortar and pestle. This is added to the remainder of the food and mixed for 3 hours on a rotary mixer. In the morning of day 5, anesthetize non-fasted rats with carbon dioxide, and collect blood by cardiac puncture. Sacrifice rats by cervical dislocation. Record body weights and liver weights in grams. Record food consumption as grams • day^-1 • rat^-1. Deaths are recorded as mortality. Use aliquots of fresh serum for clinical chemistries, thiobarbituric acid reactive substances (TBARS) and conjugated diene measurements. Freeze aliquots of serum (∼ 0.5mL) and whole livers at -20°C for compound and metabolite concentration determination at a later time.
Allow blood to clot at room temperature for 30 minutes. Obtain serum after centrifugation for 10 min at 4°C at 3000 rpm in a Beckman J-6M/E centrifuge with a JS-4.2 rotor. Analyze fresh serum by a COBAS MIRA S autoanalyzer (Roche Diagnostics) using Roche diagnostic reagents for the following clinical chemistry measurements: alkaline phosphatase (ALP, kit # 44553), alanine transaminase (ALT, kit # 42375), aspartate aminotransferase (AST, kit # 42381), total cholesterol (CHOL, kit # 44334), triglyceride (TG, kit # 44120), and glucose (GLU, kit # 44558). Calculate ALP, ALT, and AST as units/L. Calculate cholesterol, triglycerides, and glucose as mg/dL.

VCAM-1 = test: Inhibition of cytokine-induced VCAM-1 expression in human aortic smooth muscle cells (cell ELISA); format: cell-based; details: HASMC, interleukin-4 stimulated, average of three runs, read-out: VCAM-1 (% inh. 50 µM)
Procedure: (§1) Plate proliferating human umbilical vein endothelial cells (HUVEC) or human aortic smooth muscle cells (HASMC) from Clonetics (San Diego, CA) onto 96-well plates in 100 µL medium per well at 20,000 cells per cm^2. Maintain the cultures in growth medium (EGM or SMGM2, Clonetics, San Diego, CA) for two days prior to addition of cytokines or drugs. Add cytokines plus or minus compounds for 20 to 24 hours prior to analysis for adhesion molecule levels. Add tumor necrosis factor (Genzyme, Cambridge, MA) to cultures at 500-1000 units/mL to stimulate ICAM-1 expression. Add interleukin-4 (GIBCO-BRL, Gaithersburg, MD) to cultures at 100-200 pg/mL to stimulate VCAM-1 expression. […] Remove the culture medium, and wash the monolayers twice with Hanks buffered saline solution (HBSS) at room temperature. Add the primary antibody (anti-human VCAM-1 from Upstate Biotechnology, Inc., Lake Placid, NY or anti-human ICAM-1 from Immunotech, Inc., Westbrook, ME) to each well (1 µg/mL in HBSS plus 5% newborn calf serum, GIBCO-BRL, Gaithersburg, MD) and incubate at 37°C for 1 hr. Wash the wells twice with HBSS, then add 100 µL of a 1/1000 dilution of goat anti-mouse IgG conjugated to horse radish peroxidase (BioRad, Hercules, CA) in HBSS plus 5% newborn calf serum to each well and incubated for 1 hr at 37°C. Wash the wells three times with HBSS, then add 100 µL of TMB substrate (BioRad, Hercules, CA) to each well. Stop the reaction after blue color develops by addition of 50 µL of IN H2SO4. Measure absorbance at 450 nm with a plate reader.
Table 1 summarizes the ability of selected compounds of this invention to inhibit VCAM-1 and ICAM-1 using human aortic smooth muscle cells (HASMC). In these experiments, the cells were coincubated with interleukin-4 to stimulate VCAM-1 expression and with tumor necrosis factor-alpha to stimulate ICAM-1 expression.

ICAM-1 = test: Inhibition of ICAM-1 expression in proliferating human umbilical vein endothelial cells (cell ELISA); format: cell-based; details: HUVEC, coincubated with tumor necrosis factor-alpha about 20 to 24 hr, average of two runs, read-out: ICAM-1 (% inh. 50 µM)
Procedure: as §1, with “reader. […] In these experiments, the cells were coincubated with tumor necrosis factor-alpha along with the indicated compounds about 20 to 24 hr before assaying cell surface adhesion molecule expression.” for “reader.”

[1] = total cholesterol in rat serum, read-out: CHOL
[2] = triglycerides in rat serum, read-out: TRIG

Structure (SMILES) | ALT (Male Sprague-Dawley Rats) | ALP (Male Sprague-Dawley Rats) | AST (Male Sprague-Dawley Rats) | GLUC (Male Sprague-Dawley Rats) | response vs control in vivo at 0.3 % in diet (Male Sprague-Dawley Rats; [1]) | response vs control in vivo at 0.3 % in diet (Male Sprague-Dawley Rats; [2]) | inhibition at 50 µM (VCAM-1) | inhibition at 50 µM (ICAM-1)
CC(C)=CCC[C@H](C)CCOc1cc(C(C)(C)C)c(O)c(C(C)(C)C)c1 [MDL 103,294, Phenol, 2,6-bis(1,1-dimethylethyl)-4-[(3,7-dimethyl-6-octenyl)oxy]-, (S)-] | 132% | 124% | 88% | 103% | 102% | 56% |  | 
CC(C)=CCCC(C)CCSc1cc(C(C)(C)C)c(O)c(C(C)(C)C)c1 (stereo not drawn) [MDL 103,960, Phenol, 2,6-bis(1,1-dimethylethyl)-4-[(3,7-dimethyl-6-octenyl)thio]-] | 117% | 125% | 102% | 110% | 113% | 80% | 33.9 ± 6% | 9.5%
CC(C)CCCC(C)CCOc1ccc(O)c(C(C)(C)C)c1 (stereo not drawn) [MDL 104,191, Phenol, 2-(1,1-dimethylethyl)-4-[(3,7-dimethyloctyl)oxy]-] | 149% | 81% | 146% | 106% | 109% | 112% | 42.9 ± 7% | 70.5%
CC(C)=CCC[C@@H](C)CCOc1cc(C(C)(C)C)c(O)c(C(C)(C)C)c1 [MDL 104,535, Phenol, 2,6-bis(1,1-dimethylethyl)-4-[(3,7-dimethyl-6-octenyl)oxy]-,(R)-] | 108% | 151% | 94% | 112% | 103% | 60% | 26.4 ± 14% | 11.5%
